Patent publication US20110237567A9, “TRICYCLIC SPIRO-OXINDOLE DERIVATIVES AND THEIR USES AS THERAPEUTIC AGENTS” (XENON PHARMACEUTICALS INC., priority 2006, published 2011)

Tests used:
[1] = tested on: sodium channel; experiment: Guanidine influx assay (in vitro); type: cell-based, human or rat; conditions: known cell line that expresses a sodium channel; read-out: IC50 Activity Level
Source text: This example describes an in vitro assay for testing and profiling test agents against human or rat sodium channels stably expressed in cells of either an endogenous or recombinant origin. The assay is also useful for determining the IC-50 of a sodium channel blocking compound. The assay is based on the guanidine flux assay described by Reddy, N. L., et al., J Med Chem (1998), 41(17):3298-302.
The guanidine influx assay is a radiotracer flux assay used to determine ion flux activity of sodium channels in a high-throughput microplate-based format. The assay uses ^14C-guanidine hydrochloride in combination with various known sodium channel modulators, to assay the potency of test agents. Potency is determined by an IC-50 calculation. Selectivity is determined by comparing potency of the compound for the channel of interest to its potency against other sodium channels (also called ‘selectivity profiling’). […]
Cells expressing the channel of interest are grown according to the supplier or in the case of a recombinant cell in the presence of selective growth media such as G418 (Gibco/Invitrogen). The cells are disassociated from the culture dishes with an enzymatic solution (1×) Trypsin/EDTA (Gibco/Invitrogen) and analyzed for density and viability using haemocytometer (Neubauer). […]
IC-50 value of a test agent for a specific sodium channel may be determined using the above general method. […]

IC50 [1] | melting point | Structure (SMILES)
100 to 1000 nM | – | O=C1N2CCCOc3cccc(c32)C12COc1cc3c(cc12)OCO3 (stereo not drawn) [Example 2]
10 to 100 nM | – | O=C1N2CCCCc3ccc(Br)c(c32)C12COc1cc3c(cc12)OCO3 (stereo not drawn) [Example 4]
– | 216 to 217 °C | O=C1N2CCCSc3cccc(c32)C12COc1cc3c(cc12)OCO3 (stereo not drawn) [Synthetic Example 1, 3′,4′-Dihydro-2′H-spiro[furo[2,3-f][1,3]benzodioxole-7,7′-[1,4]thiazepino[2,3,4-hi]indol]-6′-one]
